Read-outs that look alike come from different tables or passages of the source.
How the values were obtained:
human neutrophils = test: In vitro respiratory burst (superoxide) assay; type: cell-based; conditions: Neutrophil, concentration required to reduce superoxide production to 50% of control, PMA-triggered respiratory burst, WST-1 dye reduction, compound 30 min before, read-out: Al50 (the source's name)
Procedure: Human neutrophils were isolated from anti-coagulated whole human blood using a Polymorphprep (density 1.13 g/mL, centrifuge 500×g, 40 min). Neutrophils were washed with PBS and plated out at 2×10^6 neutrophils per mL.
Neutrophils were treated with the compound (in DMSO) 30 minutes prior to addition of the detection dye WST-1 (5.5 mM). The respiratory burst was triggered by addition of PMA (200 ng/mL) and dye reduction was monitored (OD 450) for 25 minutes at 37° C.
Respiratory burst activity was calculated as the rate of dye reduction over time and was normalised to untreated cell controls. Anti-inflammatory activity is reported in Table 2 as the concentration required to reduce superoxide production to 50% of control, Al50.

[1] = test system: neutrophils in the peritoneal wash; test: Mouse gout model (monosodium urate crystal-induced murine peritonitis); type: in vivo; conditions: Neutrophil, oral, immediately prior to MSU crystals i.p.
Procedure: Mouse Peritionitis was induced by intraperitoneal injection of 1 to 5 mg monosodium urate (MSU) crystals, in […] PBS (0.1M, pH 7.4). Animals were treated with the compound(s) (in 250 μL PBS orally) at the doses indicated immediately prior to administration of the MSU crystals. 4 hours post administration, animals were euthanased by CO2 exposure. The peritoneal cavity was washed with 3 mL of PBS containing 3 mM EDTA and 25 U/mL of heparin. The total cells in the lavage fluid were counted and an appropriate volume retained for H and E staining for differential counting (Getting et al. Molecular Determinants of Monosodium Urate Crystal—induced Murine Peritonitis: A role for Endogenous Mast Cells and a Distinct Requirement for Endothelial-derived Selectins. J. Pharmacology and Experimental Therapeutics 1997, 283: 123-30).
Treatment groups were as follows:
Untreated Control (Naive)
PBS Control (PBS oral+MSU crystals)
Compound(s),(oral)+MSU crystals

rat glioma cells = conditions: in vitro; cited from earlier work
[2] = test system: lymphocytic leukemia cells; conditions: in vitro; cited from earlier work
[3] = superoxide activity of neutrophils in peritoneal wash 4 hours post, read-out: % suppression Superoxide production
[4] = peritoneal wash 4 hours post, total neutrophils per mL, read-out: % suppression Neutrophil infiltration

O=C1C2=C(NCCS2(=O)=O)C(=O)c2nc(C3OCCO3)ccc21 [Compound 17]
IC50 (human neutrophils): > 74 µM

O=Cc1ccc2c(n1)C(=O)C1=C(C2=O)S(=O)(=O)CCN1 [Compound 18, 2H-Pyrido[2,3-g][1,4]benzothiazine-5,10-dione, 3,4-dihydro1,1-dioxo-7-carbaldehyde]
inhibition in vivo at 25.6 µmol/kg [1, 3]: 40% | IC50 (human neutrophils): 4.17 µM

O=C1C2=C(NCCS2(=O)=O)C(=O)c2ncccc21 [Compound 11, 2H-Pyrido[2,3-g][1,4]benzothiazine-5,10-dione, 3,4-dihydro-1,1-dioxide]
inhibition in vivo at 25.6 µmol/kg [1, 4]: 30% | inhibition in vivo at 25.6 µmol/kg [1, 3]: 20% | IC50 (human neutrophils): 30 µM

O=C(O)c1ccc2c(n1)C(=O)C1=C(C2=O)S(=O)(=O)CCN1 [Compound 1, 2H-Pyrido[2,3-g][1,4]benzothiazine-5,10-dione, 3,4-dihydr-1,1-dioxo-7-carboxylic acid]
IC50 (human neutrophils): 0.14 µM

O=C(O)c1ccc2c(n1)C(=O)C1=C(NC=CS1(=O)=O)C2=O [Compound 2]
IC50 (human neutrophils): 0.07 µM

CC(C)=CCCc1ccc2c(c1)C(=O)C1=C(C2=O)S(=O)(=O)CCN1 [(B)]
cytotoxic to rat glioma cells (rat glioma cells): cytotoxic

CN(C)C(=O)c1ccc2c(n1)C(=O)C1=C(NCCS1(=O)=O)C2=O [Compound 13, 1H-Pyrido[3,2-g][1,4]benzothiazine-5,10-dione, 2,3-dihydro-N,N-dimethyl-1,1-dioxo-7-carboxamide]
IC50 (human neutrophils): 149 µM

Cc1ccc2c(n1)C(=O)C1=C(C2=O)S(=O)(=O)CCN1 [Compound 9, 2H-Pyrido[2,3-g][1,4]benzothiazine-5,10-dione, 3,4-dihydro-7-methyl-1,1-dioxide]
inhibition in vivo at 25.6 µmol/kg [1, 4]: 50% | inhibition in vivo at 25.6 µmol/kg [1, 3]: 80% | IC50 (human neutrophils): > 90 µM

COC(O)c1ccc2c(n1)C(=O)C1=C(C2=O)S(=O)(=O)CCN1 (stereo not drawn) [Compound 19]
IC50 (human neutrophils): 13 µM

N#Cc1ccc2c(n1)C(=O)C1=C(C2=O)S(=O)(=O)CCN1 [Compound 5, 2H-Pyrido[2,3-g][1,4]benzothiazine-5,10-dione, 3,4-dihydro-1,1-dioxo-7-carbonitrile]
inhibition in vivo at 25.6 µmol/kg [1, 4]: 25% | inhibition in vivo at 25.6 µmol/kg [1, 3]: 50% | IC50 (human neutrophils): 1.57 µM

N#Cc1ccc2c(O)c3c(c(O)c2n1)NCCS3(=O)=O [Compound 6, 2H-Pyrido[2,3-g][1,4]benzothiazine-5,10-dihydroxy, 3,4-dihydro-1,1-dioxo-7-carbonitrile]
IC50 (human neutrophils): 4.85 µM

CN(C)C(=O)c1ccc2c(n1)C(=O)C1=C(C2=O)S(=O)(=O)CCN1 [Compound 12, 2H-Pyrido[2,3-g][1,4]benzothiazine-5,10-dione, 3,4-dihydro-N,N-dimethyl-1,1-dioxo-7-carboxamide]
inhibition in vivo at 25.6 µmol/kg [1, 4]: 65% | inhibition in vivo at 25.6 µmol/kg [1, 3]: 85% | IC50 (human neutrophils): 79 µM

CCCCCCCCOC(=O)c1ccc2c(n1)C(=O)C1=C(C2=O)S(=O)(=O)CCN1 [Compound 4, Octyl-2H-pyrido[2,3-g][1,4]benzothiazine-5,10-dione, 3,4-dihydro-1,1-dioxo-7-carboxylate]
IC50 (human neutrophils): 9.04 µM

Cc1ccc2c(n1)C(=O)C1=C(C2=O)S(=O)(=O)C=CN1 [Compound 21, 4H-Pyrido[2,3-g][1,4]benzothiazine-5,10-dione-7-methyl-1,1-dioxide]
inhibition in vivo at 25.6 µmol/kg [1, 4]: 30% | inhibition in vivo at 25.6 µmol/kg [1, 3]: 40% | IC50 (human neutrophils): 8.93 µM

O=C(O)c1ccc2c(n1)C(=O)C1=C(C2=O)S(=O)(=O)C=CN1 [Compound 20, 4H-Pyrido[2,3-g][1,4]benzothiazine-5,10-dione-1,1-dioxo-7-carboxylic acid]
IC50 (human neutrophils): 0.09 µM

CC(C)=CCCc1ccc2c(c1)C(=O)C1=C(NCCS1(=O)=O)C2=O [(A)]
cytotoxic to rat glioma cells (rat glioma cells): cytotoxic

O=C1C2=C(C(=O)c3ccccc31)S(=O)(=O)CCN2 [Compound 22, 2H-Naphtho[2,3-b]-1,4-thiazine-5,10-dione, 3,4-dihydro-1,1-dioxide]
cytotoxic to lymphocytic leukemia cells [2]: cytotoxic | inhibition in vivo at 25.6 µmol/kg [1, 4]: 25% | inhibition in vivo at 25.6 µmol/kg [1, 3]: 80% | IC50 (human neutrophils): > 106 µM

COC(=O)c1ccc2c(n1)C(=O)C1=C(C2=O)S(=O)(=O)CCN1 [Compound 3, Methyl-2H-pyrido[2,3-g][1,4]benzothiazine-5,10-dione, 3,4-dihydro-1,1-dioxo-7-carboxylate]
inhibition in vivo at 25.6 µmol/kg [1, 3]: 80% | IC50 (human neutrophils): 1.12 µM

O=C(/C=C/c1ccc2c(n1)C(=O)C1=C(C2=O)S(=O)(=O)CCN1)c1ccccc1 [Compound 16, (E)-1-phenyl-3-(2H-Pyrido[2,3-g][1,4]benzothiazine-5,10-dione, 3,4-dihydro-1,1-dioxide)prop-2-en-1-one.]
inhibition in vivo at 25.6 µmol/kg [1, 4]: 30% | inhibition in vivo at 25.6 µmol/kg [1, 3]: 65% | IC50 (human neutrophils): 7.76 µM

Cc1ccc2c(n1)C(=O)C1=C(NCCS1(=O)=O)C2=O [Compound 10, 1H-Pyrido[3,2-g][1,4]benzothiazine-5,10-dione, 2,3-dihydro-7-methyl-1,1-dioxide]
inhibition in vivo at 25.6 µmol/kg [1, 4]: 30% | inhibition in vivo at 25.6 µmol/kg [1, 3]: 40% | IC50 (human neutrophils): > 90 µM
